Test results as given in patent publication US20090156517A1, “STABLE PHARMACEUTICAL COMPOSITIONS OF AMINOGLYCOSIDE ANTIBIOTICS, ION-CHELATING AGENTS, AND BUFFERS” (priority 2006, published 2009).

Assay: Amounts of antibiotic components in the solution over time (reverse-phase LC/UV for β-lactams and β-lactamase inhibitors, HPLC/evaporation-light-scattering for aminoglycosides)
Type: physicochemical
Protocol: The amounts of β-lactam antibiotics and β-lactamase inhibitor were determined using C18 reverse-phase LC and UV-VIS detector (Tianjin […] Co., Ltd., analysis method No. HM-K-03). The content of aminoglycoside antibiotics was measured using reverse-phase HPLC and evaporation-light-scattering detector (Tianjin […] Co., Ltd., analysis method No. HM-K-08). […] The relative amount of each antibiotic component in the composition at each time point was expressed as peak area ratio with respect to the corresponding peak area of an external standard.

[1] = Example 10: piperacillin sodium/sulbactam sodium solution cryopreserved 7 days, thawed, pH 6.0, etimicin sulfate added, no EDTA, 0 h
[2] = Example 10: piperacillin sodium/sulbactam sodium solution cryopreserved 7 days, thawed, pH 6.0, etimicin sulfate added, no EDTA, 1 h
[3] = Example 10: piperacillin sodium/sulbactam sodium solution cryopreserved 7 days, thawed, pH 6.0, etimicin sulfate added, no EDTA, 2 h
[4] = Example 10: piperacillin sodium/sulbactam sodium solution cryopreserved 7 days, thawed, pH 6.0, etimicin sulfate added, no EDTA, 4 h
[5] = Example 10: piperacillin sodium/sulbactam sodium solution cryopreserved 7 days, thawed, pH 6.0, etimicin sulfate added, no EDTA, 6 h
[6] = Example 10: piperacillin sodium/sulbactam sodium solution cryopreserved 7 days, thawed, pH 6.0, etimicin sulfate added, no EDTA, 8 h
[7] = Example 12: thawed solution from Example 10, pH 6.0, amikacin sulfate added, no EDTA, 0 h
[8] = Example 12: thawed solution from Example 10, pH 6.0, amikacin sulfate added, no EDTA, 1 h
[9] = Example 12: thawed solution from Example 10, pH 6.0, amikacin sulfate added, no EDTA, 2 h
[10] = Example 12: thawed solution from Example 10, pH 6.0, amikacin sulfate added, no EDTA, 4 h
[11] = Example 12: thawed solution from Example 10, pH 6.0, amikacin sulfate added, no EDTA, 6 h
[12] = Example 12: thawed solution from Example 10, pH 6.0, amikacin sulfate added, no EDTA, 8 h

## CCN1CCN(C(=O)N[C@@H](C(=O)N[C@@H]2C(=O)N3[C@@H]2SC(C)(C)[C@@H]3C(=O)O)c2ccccc2)C(=O)C1=O [Piperacillin, piperacillin]
[1]
  Amount of component, percentage of amount at initial time: 101.8%
[2]
  Amount of component, percentage of amount at initial time: 101.3%
[3]
  Amount of component, percentage of amount at initial time: 101.8%
[4]
  Amount of component, percentage of amount at initial time: 101.2%
[5]
  Amount of component, percentage of amount at initial time: 98.3%
[6]
  Amount of component, percentage of amount at initial time: 95.1%
Example 11: solution of Example 10 freeze-dried, stored 7 days at 0° C., redissolved, pH 6.0, etimicin sulfate and disodium EDTA added, 0 h
  Amount of component, percentage of amount at initial time: 101.8%
Example 11: solution of Example 10 freeze-dried, stored 7 days at 0° C., redissolved, pH 6.0, etimicin sulfate and disodium EDTA added, 1 h
  Amount of component, percentage of amount at initial time: 101.3%
Example 11: solution of Example 10 freeze-dried, stored 7 days at 0° C., redissolved, pH 6.0, etimicin sulfate and disodium EDTA added, 2 h
  Amount of component, percentage of amount at initial time: 101.8%
Example 11: solution of Example 10 freeze-dried, stored 7 days at 0° C., redissolved, pH 6.0, etimicin sulfate and disodium EDTA added, 4 h
  Amount of component, percentage of amount at initial time: 101.2%
Example 11: solution of Example 10 freeze-dried, stored 7 days at 0° C., redissolved, pH 6.0, etimicin sulfate and disodium EDTA added, 6 h
  Amount of component, percentage of amount at initial time: 98.3%
Example 11: solution of Example 10 freeze-dried, stored 7 days at 0° C., redissolved, pH 6.0, etimicin sulfate and disodium EDTA added, 8 h
  Amount of component, percentage of amount at initial time: 95.1%
[7]
  Amount of component, percentage of amount at initial time: 101.8%
[8]
  Amount of component, percentage of amount at initial time: 101.3%
[9]
  Amount of component, percentage of amount at initial time: 101.8%
[10]
  Amount of component, percentage of amount at initial time: 101.2%
[11]
  Amount of component, percentage of amount at initial time: 98.3%
[12]
  Amount of component, percentage of amount at initial time: 95.1%

## CC1(C)S[C@@H]2[C@H](NC(=O)[C@H](NC(=O)N3CCN(S(C)(=O)=O)C3=O)c3ccccc3)C(=O)N2[C@H]1C(=O)O [Mezlocillin sodium, mezlocillin sodium]
Example 9: freeze-dried amikacin sulfate/disodium EDTA/citrate pH 6.5 powder stored 7 days at 0° C., redissolved, mezlocillin sodium added, 0 h
  Amount of component, percentage of amount at initial time: 94.68%
Example 9: freeze-dried amikacin sulfate/disodium EDTA/citrate pH 6.5 powder stored 7 days at 0° C., redissolved, mezlocillin sodium added, 1 h
  Amount of component, percentage of amount at initial time: 95.90%
Example 9: freeze-dried amikacin sulfate/disodium EDTA/citrate pH 6.5 powder stored 7 days at 0° C., redissolved, mezlocillin sodium added, 2 h
  Amount of component, percentage of amount at initial time: 71.70%
Example 9: freeze-dried amikacin sulfate/disodium EDTA/citrate pH 6.5 powder stored 7 days at 0° C., redissolved, mezlocillin sodium added, 4 h
  Amount of component, percentage of amount at initial time: 91.78%
Example 9: freeze-dried amikacin sulfate/disodium EDTA/citrate pH 6.5 powder stored 7 days at 0° C., redissolved, mezlocillin sodium added, 6 h
  Amount of component, percentage of amount at initial time: 93.08%
Example 9: freeze-dried amikacin sulfate/disodium EDTA/citrate pH 6.5 powder stored 7 days at 0° C., redissolved, mezlocillin sodium added, 8 h
  Amount of component, percentage of amount at initial time: 97.69%

## NCC[C@H](O)C(=O)N[C@@H]1C[C@H](N)[C@@H](O[C@H]2O[C@H](CN)[C@@H](O)[C@H](O)[C@H]2O)[C@H](O)[C@H]1O[C@H]1O[C@H](CO)[C@@H](O)[C@H](N)[C@H]1O [Amikacin, amikacin]
Example 9: amikacin sulfate/disodium EDTA/citrate pH 6.5 solution with fructose stored 7 days at minus 20° C., thawed, cefodizime sodium added, 0 h
  Amount of component, percentage of amount at initial time: 96.88%
Example 9: amikacin sulfate/disodium EDTA/citrate pH 6.5 solution with fructose stored 7 days at minus 20° C., thawed, cefodizime sodium added, 1 h
  Amount of component, percentage of amount at initial time: 97.78%
Example 9: amikacin sulfate/disodium EDTA/citrate pH 6.5 solution with fructose stored 7 days at minus 20° C., thawed, cefodizime sodium added, 2 h
  Amount of component, percentage of amount at initial time: 96.14%
Example 9: amikacin sulfate/disodium EDTA/citrate pH 6.5 solution with fructose stored 7 days at minus 20° C., thawed, cefodizime sodium added, 4 h
  Amount of component, percentage of amount at initial time: 96.88%
Example 9: amikacin sulfate/disodium EDTA/citrate pH 6.5 solution with fructose stored 7 days at minus 20° C., thawed, cefodizime sodium added, 6 h
  Amount of component, percentage of amount at initial time: 98.34%
Example 9: amikacin sulfate/disodium EDTA/citrate pH 6.5 solution with fructose stored 7 days at minus 20° C., thawed, cefodizime sodium added, 8 h
  Amount of component, percentage of amount at initial time: 98.11%
[7]
  Amount of component, percentage of amount at initial time: 86.05%
[8]
  Amount of component, percentage of amount at initial time: 83.57%
[9]
  Amount of component, percentage of amount at initial time: 81.55%
[10]
  Amount of component, percentage of amount at initial time: 80.55%
[11]
  Amount of component, percentage of amount at initial time: 85.75%
[12]
  Amount of component, percentage of amount at initial time: 83.83%

## CC1(C)[C@H](C(=O)O)N2C(=O)C[C@H]2S1(=O)=O [Sulbactam sodium, sulbactam sodium]
Example 4 solution (cefoperazone sodium, sulbactam sodium, gentamicin, sodium citrate pH 6.75, no EDTA), room temperature, 0 h
  Amount of component, percentage of amount at initial time: 101.4%
Example 4 solution (cefoperazone sodium, sulbactam sodium, gentamicin, sodium citrate pH 6.75, no EDTA), room temperature, 1 h
  Amount of component, percentage of amount at initial time: 101.4%
Example 4 solution (cefoperazone sodium, sulbactam sodium, gentamicin, sodium citrate pH 6.75, no EDTA), room temperature, 2 h
  Amount of component, percentage of amount at initial time: 101.5%
Example 4 solution (cefoperazone sodium, sulbactam sodium, gentamicin, sodium citrate pH 6.75, no EDTA), room temperature, 4 h
  Amount of component, percentage of amount at initial time: 109.7%
Example 4 solution (cefoperazone sodium, sulbactam sodium, gentamicin, sodium citrate pH 6.75, no EDTA), room temperature, 6 h
  Amount of component, percentage of amount at initial time: 103.2%
Example 5 solution (cefoperazone sodium, sulbactam sodium, gentamicin, disodium EDTA, sodium citrate pH 6.75), room temperature, 0 h
  Amount of component, percentage of amount at initial time: 101.4%
Example 5 solution (cefoperazone sodium, sulbactam sodium, gentamicin, disodium EDTA, sodium citrate pH 6.75), room temperature, 1 h
  Amount of component, percentage of amount at initial time: 101.4%
Example 5 solution (cefoperazone sodium, sulbactam sodium, gentamicin, disodium EDTA, sodium citrate pH 6.75), room temperature, 2 h
  Amount of component, percentage of amount at initial time: 101.5%
Example 5 solution (cefoperazone sodium, sulbactam sodium, gentamicin, disodium EDTA, sodium citrate pH 6.75), room temperature, 4 h
  Amount of component, percentage of amount at initial time: 109.7%
Example 5 solution (cefoperazone sodium, sulbactam sodium, gentamicin, disodium EDTA, sodium citrate pH 6.75), room temperature, 6 h
  Amount of component, percentage of amount at initial time: 103.2%
Example 6 solution (cefoperazone sodium, sulbactam sodium, etimicin sulfate, disodium EDTA, sodium citrate pH 6.5), room temperature, 0 h
  Amount of component, percentage of amount at initial time: 99.62%
Example 6 solution (cefoperazone sodium, sulbactam sodium, etimicin sulfate, disodium EDTA, sodium citrate pH 6.5), room temperature, 1 h
  Amount of component, percentage of amount at initial time: 100.4%
Example 6 solution (cefoperazone sodium, sulbactam sodium, etimicin sulfate, disodium EDTA, sodium citrate pH 6.5), room temperature, 2 h
  Amount of component, percentage of amount at initial time: 100.2%
Example 6 solution (cefoperazone sodium, sulbactam sodium, etimicin sulfate, disodium EDTA, sodium citrate pH 6.5), room temperature, 4 h
  Amount of component, percentage of amount at initial time: 100.2%
Example 7 solution (ceftriaxone sodium, sulbactam sodium, etimicin sulfate, disodium EDTA, sodium citrate pH 6.5), room temperature, 0 h
  Amount of component, percentage of amount at initial time: 96.84%
Example 7 solution (ceftriaxone sodium, sulbactam sodium, etimicin sulfate, disodium EDTA, sodium citrate pH 6.5), room temperature, 1 h
  Amount of component, percentage of amount at initial time: 94.43%
Example 7 solution (ceftriaxone sodium, sulbactam sodium, etimicin sulfate, disodium EDTA, sodium citrate pH 6.5), room temperature, 2 h
  Amount of component, percentage of amount at initial time: 93.35%
Example 7 solution (ceftriaxone sodium, sulbactam sodium, etimicin sulfate, disodium EDTA, sodium citrate pH 6.5), room temperature, 4 h
  Amount of component, percentage of amount at initial time: 93.23%
Example 7 solution (ceftriaxone sodium, sulbactam sodium, etimicin sulfate, disodium EDTA, sodium citrate pH 6.5), room temperature, 6 h
  Amount of component, percentage of amount at initial time: 92.13%
Example 7 solution (ceftriaxone sodium, sulbactam sodium, etimicin sulfate, disodium EDTA, sodium citrate pH 6.5), room temperature, 8 h
  Amount of component, percentage of amount at initial time: 93.38%
[1]
  Amount of component, percentage of amount at initial time: 94.1%
[2]
  Amount of component, percentage of amount at initial time: 97.4%
[3]
  Amount of component, percentage of amount at initial time: 96.4%
[4]
  Amount of component, percentage of amount at initial time: 97.7%
[5]
  Amount of component, percentage of amount at initial time: 96.9%
[6]
  Amount of component, percentage of amount at initial time: 97.1%
